Assay results published in PubChem BioAssay (NCI).
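48-hour exposure; five concentrations; linearly interpolated endpoints. Abbreviation: GI50, concentration required for 50% inhibition of growth. TGI: concentration producing complete growth inhibition.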

Legend:
Assay in all cases: NCI tumour cell line growth inhibition, 48 h; in the data active = GI50 below about 0.43 µM; inactive = the rest
SN12C renal = tested on: SN12C renal
SNB-19 CNS = tested on: SNB-19 CNS
SF-295 CNS = tested on: SF-295 CNS
HCC-2998 colon = tested on: HCC-2998 colon
MALME-3M melanoma = tested on: MALME-3M melanoma
U251 CNS = tested on: U251 CNS
CCRF-CEM leukemia = tested on: CCRF-CEM leukemia
SF-268 CNS = tested on: SF-268 CNS
KM12 colon = tested on: KM12 colon
HCT-116 colon = tested on: HCT-116 colon
786-0 renal = tested on: 786-0 renal
NCI/ADR-RES ovarian = tested on: NCI/ADR-RES ovarian
SK-OV-3 ovarian = tested on: SK-OV-3 ovarian
IGROV1 ovarian = tested on: IGROV1 ovarian
OVCAR-4 ovarian = tested on: OVCAR-4 ovarian
PC-3 prostate = tested on: PC-3 prostate
UACC-62 melanoma = tested on: UACC-62 melanoma
DU-145 prostate = tested on: DU-145 prostate
MCF7 breast = tested on: MCF7 breast
SK-MEL-2 melanoma = tested on: SK-MEL-2 melanoma
MOLT-4 leukemia = tested on: MOLT-4 leukemia
M14 melanoma = tested on: M14 melanoma
MDA-MB-231 breast = tested on: MDA-MB-231 breast
OVCAR-8 ovarian = tested on: OVCAR-8 ovarian
HCT-15 colon = tested on: HCT-15 colon
T-47D breast = tested on: T-47D breast
TK-10 renal = tested on: TK-10 renal
NCI-H460 lung = tested on: NCI-H460 lung
SNB-75 CNS = tested on: SNB-75 CNS
SK-MEL-28 melanoma = tested on: SK-MEL-28 melanoma
NCI-H23 lung = tested on: NCI-H23 lung
ACHN renal = tested on: ACHN renal
HOP-92 NSCLC = tested on: HOP-92 NSCLC
BT-549 breast = tested on: BT-549 breast
SR leukemia = tested on: SR leukemia
RXF 393 renal = tested on: RXF 393 renal
SK-MEL-5 melanoma = tested on: SK-MEL-5 melanoma
LOX IMVI melanoma = tested on: LOX IMVI melanoma
COLO 205 colon = tested on: COLO 205 colon
UACC-257 melanoma = tested on: UACC-257 melanoma
HS 578T breast = tested on: HS 578T breast
MDA-MB-435 = tested on: MDA-MB-435
OVCAR-3 ovarian = tested on: OVCAR-3 ovarian
K-562 leukemia = tested on: K-562 leukemia
NCI-H522 lung = tested on: NCI-H522 lung
EKVX NSCLC = tested on: EKVX NSCLC
RPMI-8226 leukemia = tested on: RPMI-8226 leukemia
A498 renal = tested on: A498 renal
SF-539 CNS = tested on: SF-539 CNS
SW-620 colon = tested on: SW-620 colon
UO-31 renal = tested on: UO-31 renal
HT29 colon = tested on: HT29 colon
HL-60(TB) leukemia = tested on: HL-60(TB) leukemia
A549 NSCLC = tested on: A549 NSCLC
OVCAR-5 ovarian = tested on: OVCAR-5 ovarian
HOP-62 NSCLC = tested on: HOP-62 NSCLC
NCI-H226 lung = tested on: NCI-H226 lung

COc1ccc(-c2cc(C(=O)N3N=C(c4ccc(N)cc4)CC3c3ccc(Cl)cc3)c3ccccc3n2)cc1 (centres undefined)
> 100 µM: TGI (SN12C renal) | TGI (SNB-19 CNS) | TGI (SF-295 CNS) | TGI (HCC-2998 colon) | TGI (MALME-3M melanoma) | TGI (U251 CNS) | TGI (CCRF-CEM leukemia) | TGI (SF-268 CNS) | TGI (KM12 colon) | TGI (HCT-116 colon) | TGI (786-0 renal) | TGI (NCI/ADR-RES ovarian) | TGI (SK-OV-3 ovarian) | TGI (IGROV1 ovarian) | TGI (OVCAR-4 ovarian) | TGI (PC-3 prostate) | TGI (UACC-62 melanoma) | TGI (DU-145 prostate) | TGI (MCF7 breast) | TGI (SK-MEL-2 melanoma) | TGI (MOLT-4 leukemia) | TGI (M14 melanoma) | TGI (MDA-MB-231 breast) | TGI (OVCAR-8 ovarian) | TGI (HCT-15 colon) | TGI (T-47D breast) | TGI (TK-10 renal) | TGI (NCI-H460 lung) | TGI (SK-MEL-28 melanoma) | TGI (NCI-H23 lung) | TGI (ACHN renal) | TGI (HOP-92 NSCLC) | TGI (SR leukemia) | TGI (LOX IMVI melanoma) | TGI (UACC-257 melanoma) | TGI (HS 578T breast) | TGI (K-562 leukemia) | TGI (EKVX NSCLC) | TGI (RPMI-8226 leukemia) | TGI (SF-539 CNS) | TGI (SW-620 colon) | TGI (UO-31 renal) | TGI (HT29 colon) | TGI (HL-60(TB) leukemia) | TGI (A549 NSCLC) | TGI (OVCAR-5 ovarian) | TGI (HOP-62 NSCLC) | TGI (NCI-H226 lung)
8.22 µM: TGI (RXF 393 renal)
active: GI50 (SNB-75 CNS) 0.371 µM | GI50 (MDA-MB-435) 0.305 µM | GI50 (NCI-H522 lung) 0.307 µM | GI50 (A498 renal) 0.375 µM
2.22 µM: TGI (MDA-MB-435)
1.8 µM: TGI (NCI-H522 lung)
8.66 µM: TGI (SNB-75 CNS)
9.25 µM: TGI (SK-MEL-5 melanoma)
6.58 µM: TGI (COLO 205 colon)
8.55 µM: TGI (OVCAR-3 ovarian)
0.914 µM: TGI (A498 renal)
73 µM: TGI (BT-549 breast)
inactive: GI50 (SN12C renal) 4.27 µM | GI50 (SNB-19 CNS) 5.54 µM | GI50 (SF-295 CNS) 0.54 µM | GI50 (HCC-2998 colon) 3.4 µM | GI50 (MALME-3M melanoma) > 100 µM | GI50 (U251 CNS) 2.18 µM | GI50 (CCRF-CEM leukemia) 5.84 µM | GI50 (SF-268 CNS) 2.19 µM | GI50 (KM12 colon) 1.15 µM | GI50 (HCT-116 colon) 1.41 µM | GI50 (786-0 renal) 1.84 µM | GI50 (NCI/ADR-RES ovarian) 0.519 µM | GI50 (SK-OV-3 ovarian) 3.32 µM | GI50 (IGROV1 ovarian) 4.98 µM | GI50 (OVCAR-4 ovarian) 1.82 µM | GI50 (PC-3 prostate) 2.03 µM | GI50 (UACC-62 melanoma) 0.556 µM | GI50 (DU-145 prostate) 3.16 µM | GI50 (MCF7 breast) 0.442 µM | GI50 (SK-MEL-2 melanoma) 2.03 µM | GI50 (MOLT-4 leukemia) 3.3 µM | GI50 (M14 melanoma) 1.16 µM | GI50 (MDA-MB-231 breast) 3.28 µM | GI50 (OVCAR-8 ovarian) 4.16 µM | GI50 (HCT-15 colon) 1.03 µM | GI50 (T-47D breast) 2.71 µM | GI50 (TK-10 renal) 52.3 µM | GI50 (NCI-H460 lung) 1.89 µM | GI50 (SK-MEL-28 melanoma) 3.78 µM | GI50 (NCI-H23 lung) 3.14 µM | GI50 (ACHN renal) 1.47 µM | GI50 (HOP-92 NSCLC) 1.92 µM | GI50 (BT-549 breast) 2.04 µM | GI50 (SR leukemia) 0.595 µM | GI50 (RXF 393 renal) 0.698 µM | GI50 (SK-MEL-5 melanoma) 0.701 µM | GI50 (LOX IMVI melanoma) 1.56 µM | GI50 (COLO 205 colon) 1.99 µM | GI50 (UACC-257 melanoma) > 100 µM | GI50 (HS 578T breast) 1.05 µM | GI50 (OVCAR-3 ovarian) 0.462 µM | GI50 (K-562 leukemia) 1.05 µM | GI50 (EKVX NSCLC) 3.78 µM | GI50 (RPMI-8226 leukemia) 3.86 µM | GI50 (SF-539 CNS) 1.41 µM | GI50 (SW-620 colon) 1.24 µM | GI50 (UO-31 renal) 1.55 µM | GI50 (HT29 colon) 1.13 µM | GI50 (HL-60(TB) leukemia) 2.54 µM | GI50 (A549 NSCLC) 2.33 µM | GI50 (OVCAR-5 ovarian) 5.51 µM | GI50 (HOP-62 NSCLC) 3.21 µM | GI50 (NCI-H226 lung) 7.54 µM
